According to patent publication US20260209483A1, “RUBBER COMPOSITIONS COMPRISING ANTIDEGRADANTS” (FLEXSYS AMERICA L.P., priority 2022, published 2026):

Assay: Oxidative induction time (OIT) by DSC, compound mixed with polyisoprene
Conditions: 0.5 wt % compound mixed with polyisoprene, isothermal 160 °C in O2, DSC; blank 1-2 minutes
Procedure: OIT is measured according to a procedure carried out in a differential scanning calorimeter (TA Instruments, Q200), also knows as DSC, and is used to predict thermo-oxidative performance of a material. In this procedure, each sample is held in a sample cell and heated under a nitrogen atmosphere to a preselected temperature.
0.5 wt % of a Compound of the Disclosure, or no antidegradant (blank) was mixed with polyisoprene and heated isothermally at 160° C. in O2.

| SMILES | Peak time of OIT testing |
| --- | --- |
| CC(Nc1ccc(Cc2ccc(NC(C)c3ccco3)cc2)cc1)c1ccco1 (stereo not shown) [Compound 20-A, 4,4′-methylenebis(N-(1-(furan-2-yl)ethyl)aniline)] | 2.3 min |
| Cc1c(NC(C)C)ccc2c1NCCC2(C)c1ccccc1 (stereo not shown) [Compound 2-J, N-isopropyl-4,8-dimethyl-4-phenyl-1,2,3,4-tetrahydroquinolin-7-amine] | 15.6 min |
| CCC(CC)Nc1cc(C)c2c(c1)C(C)(c1ccccc1)CCN2 (stereo not shown) [Compound 2-F, 4,8-dimethyl-N-(pentan-3-yl)-4-phenyl-1,2,3,4-tetrahydroquinolin-6-amine] | 17.4 min |
| CCC(C)Nc1ccc2[nH]ccc2c1 (stereo not shown) [Compound 1-C, N-(sec-butyl)-1H-indol-5-amine] | 19.2 min |
| CC1CC(C)(C)Nc2ccc(Cc3ccc4c(c3)C(C)CC(C)(C)N4)cc21 (stereo not shown) [Compound 2-A, bis(2,2,4-trimethyl-1,2,3,4-tetrahydroquinolin-6-yl) methane] | 10.8 min |
| CC1=CC(C)(C)Nc2c1ccc(NC(C)CC(C)C)c2C (stereo not shown) [Compound 1-J, 2,2,4,8-tetramethyl-N-(4-methylpentan-2-yl)-1,2-dihydroquinolin-7-amine] | 2.6 min |
| c1coc(CNc2ccc(C(c3ccc(NCc4ccco4)cc3)c3ccco3)cc2)c1 [Compound 7-A, 4,4′-(furan-2-ylmethylene)bis(N-(furan-2-ylmethyl)aniline)] | 4.1 min |
| CC1=CC(C)(C)Nc2ccc(Sc3ccc4c(c3)C(C)=CC(C)(C)N4)cc21 [Compound 153-A, bis(2,2,4-trimethyl-1,2-dihydroquinolin-6-yl)sulfane] | 5.8 min |
| Cc1cc(NC(C)C)cc2c1NC(c1ccccc1)CC2(C)c1ccccc1 (stereo not shown) [Compound 3-F, N-isopropyl-4,8-dimethyl-2,4-diphenyl-1,2,3,4-tetrahydroquinolin-6-amine] | 43.8 min |
| CC1=CC(C)(C)Nc2ccc(NCc3ccco3)cc21 [Compound 1-H, N-(furan-2-ylmethyl)-2,2,4-trimethyl-1,2-dihydroquinolin-6-amine] | 10.7 min |
| CC1=CC(C)(C)Nc2c(C)cc(Nc3ccccc3)cc21 [Compound 1-B, 2,2,4,8-tetramethyl-N-phenyl-1,2-dihydroquinolin-6-amine] | 15.2 min |
| CC(C)Nc1ccc(C(c2ccc(NC(C)C)cc2)c2ccco2)cc1 [Compound 3-A, 4,4′-(furan-2-ylmethylene)bis(N-isopropylaniline)] | 5.9 min |
| CC(C)Nc1ccc(C(c2ccccc2)c2ccc(NC(C)C)cc2)cc1 [Compound 16-A, 4,4′-(phenylmethylene)bis(N-isopropylaniline)] | 6.6 min |
| CC(C)CCC(C)Nc1ccc(NC(C)CCC(C)C)nc1 (stereo not shown) [Compound 1-E, N^2,N^5-bis(5-methylhexan-2-yl)pyridine-2,5-diamine] | 11.1 min |
| c1coc(CNc2ccc(Cc3ccc(NCc4ccco4)cc3)cc2)c1 [Compound 8-A, 4,4′-methylenebis(N-(furan-2-ylmethyl)aniline)] | 2.9 min |
| CC1CC(C)(C)Nc2cc3c(cc21)NC(C)(C)CC3C (stereo not shown) [Compound 33-H, 2,2,4,7,7,9-hexamethyl-1,2,3,4,6,7,8,9-octahydropyrido[2,3-g]quinoline] | 8.3 min |
| Cc1cc(Nc2ccccc2)cc2c1NC(C)(C)CC2C (stereo not shown) [Compound 2-B, 2,2,4,8-tetramethyl-N-phenyl-1,2,3,4-tetrahydroquinolin-6-amine] | 17.8 min |

| SMILES | Peak time of OIT testing |
| --- | --- |
| CC(Nc1ccc(Cc2ccc(NC(C)c3ccccc3)cc2)cc1)c1ccccc1 (stereo not shown) [Compound 21-A, 4,4′-methylenebis(N-(1-phenylethyl)aniline)] | 2.6 min |
| CC(C)Nc1ccc(Cc2ccc(NC(C)C)cc2)cc1 [Compound 19-A, 4,4′-methylenebis(N-isopropylaniline)] | 2.7 min |
| CC1=CC(C)(C)Nc2cc3c(cc21)NC(C)(C)C=C3C [Compound 32-H, 2,2,4,7,7,9-hexamethyl-1,2,6,7-tetrahydropyrido[2,3-g]quinoline] | 6.6 min |
| CC(C)Nc1ccc(Oc2ccc(NC(C)C)cc2)cc1 [Compound 27-A] | 4.2 min |
| CC(Nc1ccc2[nH]ccc2c1)c1ccccc1 (stereo not shown) [Compound 19-C, N-(1-phenylethyl)-1H-indol-5-amine] | 6.9 min |
| Cc1cc(Cc2cc(C)c(NC(C)C)c(C)c2)cc(C)c1NC(C)C [Compound 154-A, 4,4′-methylenebis(N-isopropyl-2,6-dimethylaniline)] | 1.5 min |
| Cc1cc(NC(C)C)cc2c1NC(C(C)C)CC2(C)c1ccccc1 (stereo not shown) [Compound 4-F, N,2-diisopropyl-4,8-dimethyl-4-phenyl-1,2,3,4-tetrahydroquinolin-6-amine] | 19.6 min |
| Cc1cc(NC(C)c2ccccc2)cc2c1NC(C)(C)CC2 (stereo not shown) [Compound 119-B, 2,2,8-trimethyl-N-(1-phenylethyl)-1,2,3,4-tetrahydroquinolin-6-amine] | 21.9 min |
| Cc1cc(NC(C)C)cc2c1NCC(C)(C)C2 [Compound 47-F, N-isopropyl-3,3,8-trimethyl-1,2,3,4-tetrahydroquinolin-6-amine] | 3.2 min |
| Cc1cc(NC(C)C)cc2c1NCCC2(C)c1ccccc1 (stereo not shown) [Compound 1-F, N-isopropyl-4,8-dimethyl-4-phenyl-1,2,3,4-tetrahydroquinolin-6-amine] | 20.3 min |
| COC1=CC(=Nc2ccccc2)C=C2C(C)=CC(C)(C)N=C12 [Compound 7-D, 8-methoxy-2,2,4-trimethyl-N-phenylquinolin-6(2H)-imine] | 24.6 min |
| COc1cc(Nc2ccccc2)cc2c1NC(C)(C)C=C2C [Compound 7-B, 8-methoxy-2,2,4-trimethyl-N-phenyl-1,2-dihydroquinolin-6-amine] | 31.0 min |
| CCOC(=O)C1=CC(C)(C(=O)OCC)Nc2ccc(Nc3ccccc3)cc21 (stereo not shown) [Compound 3-H, diethyl 2-methyl-6-(phenylamino)-1,2-dihydroquinoline-2,4-dicarboxylate] | 12.9 min |
| CCOC(=O)C1=CC(C)(C(=O)OCC)Nc2c(C)cc(Nc3ccccc3)cc21 (stereo not shown) [Compound 120-B, diethyl 2,8-dimethyl-6-(phenylamino)-1,2-dihydroquinoline-2,4-dicarboxylate] | 11.5 min |
| CC1=CC(C)(C)Nc2ccc(Cc3ccc4c(c3)C(C)=CC(C)(C)N4)cc21 [Compound 1-A, bis(2,2,4-trimethyl-1,2-dihydroquinolin-6-yl) methane] | 4.8 min |
| CCC(C)Nc1ccc2c(c1)CCN2 (stereo not shown) [Compound 2-C, N-(sec-butyl) indolin-5-amine] | 14.1 min |
| CC(C)Nc1ccc(Sc2ccc(NC(C)C)cc2)cc1 [Compound 11-A] | 2.5 min |
